Laboratory results from patent US10196365B2, “Quinazoline derivative, preparation method therefor, and pharmaceutical composition and application thereof” (ARROMAX PHARMATECH CO., LTD., priority 2014, dated 2019).
Marks after values point to notes of the source that are not given here.

Experiments:
EGFR tyrosine kinase = EGFR tyrosine kinase (Homo sapiens (Human), UniProt P00533); test: HTRF kinEASE TK in vitro kinase assay, EGFR; type: biochemical; settings: 30 min enzyme reaction, read-out: IC50 against EGFR
[1] = tested on: MDA-MB-453 (human breast cancer cell lines); test: Growth inhibition test in tumor cells (CCK8), MDA-MB-453; type: cell-based; settings: MDA-MB-453 cells, 72 h
Procedure: Growth Inhibition Tests of a Series of Compounds in Different Tumor Cells
i. Cell lines: A431 (human epithelial carcinoma cell lines), A549 (human lung cancer cell lines), NCI H1975 (human non-small cell lung cancer cell lines (HCC), HCC 827 (human non-small cell lung cancer cell line), MDA-MB-453 (human breast cancer cell lines)
MDA-MB-453 cell line: 90% L15+10% FBS; trypsin (a 0.25% (W/V) solution was prepared with […], 0.53 mM EDTA was added);
i) Logarithmic growth phase cells were collected and counted, the cells were suspended again with complete medium,
ii) The cell concentration was adjusted to an appropriate concentration, inoculated to 96 holes, each of which with 100 μL cells suspension.
iii) The cells were incubated in a 37° C., 100% relative humidity and 5% CO2 incubator, for 24 h.
i) Logarithmic growth phase cells were collected and counted, the cells were suspended again with complete medium, the cell concentration was adjusted to an appropriate concentration (determined according to the results of cell density optimization test), inoculated to 96 plates, each of which with […] cells suspension. The cells were incubated in a 37° C., 100% relative humidity and 5% CO2 incubator for 24 h.
ii) The test compounds were diluted to the corresponding concentration stated by culture medium, and the cells were inoculated as 25 μL/hole. The final concentration of the compound was from 10 μM to 0 μM, with a gradient of 4 times, and 10 concentration points totally.
iii) The cells were incubated in a 37° C., 100% relative humidity, 5% CO2 incubator for 72 h.
iv) Absorbing the culture medium, the complete medium containing 10% CCK-8 was added and incubated in the incubator of 37° C. for 2-4 h.
v) After a slight shake, the absorbance at 450 nm was measured by SpectraMax M5 Microplate Reader, taking the absorbance at 650 nm as a reference, the inhibition rate was calculated.
The IC50 curve fitting was performed by using the software Graphpad Prism 5 and the calculation formula log (inhibitor) vs. response to calculate the IC50 value.

[2] = tested on: A431 (human epithelial carcinoma cell lines); test: Growth inhibition test in tumor cells (CCK8), A431; type: cell-based; settings: A-431, 72 h
Her-2 enzyme = Her-2 enzyme (Homo sapiens (Human), UniProt P04626); test: HTRF kinEASE TK in vitro kinase assay, Her-2; type: biochemical; settings: 30 min enzyme reaction, read-out: IC50 against Her-2
[3] = tested on: A549 (human lung cancer cell lines); test: Growth inhibition test in tumor cells (CCK8), A549; type: cell-based; settings: 72 h
[4] = tested on: NCI H1975 (human non-small cell lung cancer cell lines); test: Growth inhibition test in tumor cells (CCK8), NCI-H1975; type: cell-based; settings: 72 h
[5] = tested on: HCC 827 (human non-small cell lung cancer cell line); test: Growth inhibition test in tumor cells (CCK8), HCC827; type: cell-based; settings: HCC 827 cells, 72 h
[6] = tested on: NCI-H1975 nude mice transplanted tumor; test: In vivo pharmacodynamics evaluation, NCI-H1975 nude mice transplanted tumor; parameters: species or system BALB/c nude mice; settings: gavage
Procedure: BALB/c nude mice, female, 6 to 7 weeks of age, weight 20 g±2 g, purchased from Shanghai silaike experimental animal Co. Ltd., SPF environment.
The logarithmic growth phase NCI-H1975 cells cultured in vitro were digested with trypsin, washed with PBS for three times, the cell survival rate was detected by trypan blue exclusion to be >90%, the cell concentration was adjusted to 1×10^7/mL with PBS, which was implanted subcutaneously in back forelimb of the nude mice with 0.2 mL/pcs under aseptic condition. After tumor formation, the tumor were cultured for two passages in vivo, the tumor were stripped out to sterile culture plate when growing to the volume of 300 to 500 mm^3, a small amount of PBS was added, the tumor tissue with vigorous growth were cut into about 1.5 mm^3 tumor blocks, inoculated in right armpit of the nude mice. The diameter of tumor was measured with vernier caliper, when the tumor grew to 100 to 200 mm^3, then the animal were randomly grouping, […], gavage administration, once a day or every other day, continuously administrated for 14 days (d14) and observed for 7 days (d22), the negative control group was administrated with the same amount of solvent (saline solution of 1% DMSO), during the period of administration and recovery, the body weight and tumor size of the nude mice were measured weekly 2 to 3 times. The tumor volume and relative tumor volume were calculated according to the measured data, and the calculation formula of the tumor volume (TV) was TV=1/2×a×b^2, of which a and b represent the tumor length and diameter respectively. The relative tumor volume (RTV) was calculated according to the measured results, and the calculation formula was: RTV=Vt/V0, wherein V0 represents the tumor volume at the beginning of the experiment, Vt represents the volume of the tumor each measured.

Her-2 enzyme, sequence (P04626 23-1255): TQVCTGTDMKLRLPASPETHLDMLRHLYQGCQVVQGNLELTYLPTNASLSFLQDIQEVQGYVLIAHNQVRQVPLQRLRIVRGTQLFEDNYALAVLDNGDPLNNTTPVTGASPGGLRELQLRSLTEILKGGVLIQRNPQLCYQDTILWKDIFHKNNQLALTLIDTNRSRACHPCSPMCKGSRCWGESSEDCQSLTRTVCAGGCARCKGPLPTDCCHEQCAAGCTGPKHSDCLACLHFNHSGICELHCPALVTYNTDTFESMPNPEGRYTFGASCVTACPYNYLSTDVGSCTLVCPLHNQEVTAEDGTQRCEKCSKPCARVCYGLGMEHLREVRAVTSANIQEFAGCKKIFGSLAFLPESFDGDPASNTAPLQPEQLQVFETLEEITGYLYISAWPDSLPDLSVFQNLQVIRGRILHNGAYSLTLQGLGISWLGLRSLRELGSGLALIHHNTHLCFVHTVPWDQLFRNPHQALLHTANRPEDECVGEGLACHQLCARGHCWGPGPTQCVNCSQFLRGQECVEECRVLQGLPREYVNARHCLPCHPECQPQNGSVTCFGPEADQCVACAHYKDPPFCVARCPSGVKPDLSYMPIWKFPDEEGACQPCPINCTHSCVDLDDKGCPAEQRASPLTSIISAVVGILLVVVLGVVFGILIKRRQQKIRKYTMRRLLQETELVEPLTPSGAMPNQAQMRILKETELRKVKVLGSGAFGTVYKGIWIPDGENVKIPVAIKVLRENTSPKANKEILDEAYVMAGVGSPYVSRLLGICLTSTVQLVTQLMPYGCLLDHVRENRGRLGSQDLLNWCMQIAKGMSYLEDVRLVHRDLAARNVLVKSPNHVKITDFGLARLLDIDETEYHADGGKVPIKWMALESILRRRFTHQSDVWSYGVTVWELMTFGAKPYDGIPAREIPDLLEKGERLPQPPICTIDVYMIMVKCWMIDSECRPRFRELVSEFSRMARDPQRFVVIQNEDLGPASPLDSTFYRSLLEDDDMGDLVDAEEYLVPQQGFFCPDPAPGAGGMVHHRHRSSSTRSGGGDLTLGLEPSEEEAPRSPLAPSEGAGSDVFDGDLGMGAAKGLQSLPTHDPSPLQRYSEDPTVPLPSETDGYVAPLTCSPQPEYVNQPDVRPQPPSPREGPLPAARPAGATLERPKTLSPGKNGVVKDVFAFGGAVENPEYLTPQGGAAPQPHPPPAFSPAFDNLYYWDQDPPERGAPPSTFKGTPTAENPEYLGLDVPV
EGFR tyrosine kinase, sequence (P00533 25-1210): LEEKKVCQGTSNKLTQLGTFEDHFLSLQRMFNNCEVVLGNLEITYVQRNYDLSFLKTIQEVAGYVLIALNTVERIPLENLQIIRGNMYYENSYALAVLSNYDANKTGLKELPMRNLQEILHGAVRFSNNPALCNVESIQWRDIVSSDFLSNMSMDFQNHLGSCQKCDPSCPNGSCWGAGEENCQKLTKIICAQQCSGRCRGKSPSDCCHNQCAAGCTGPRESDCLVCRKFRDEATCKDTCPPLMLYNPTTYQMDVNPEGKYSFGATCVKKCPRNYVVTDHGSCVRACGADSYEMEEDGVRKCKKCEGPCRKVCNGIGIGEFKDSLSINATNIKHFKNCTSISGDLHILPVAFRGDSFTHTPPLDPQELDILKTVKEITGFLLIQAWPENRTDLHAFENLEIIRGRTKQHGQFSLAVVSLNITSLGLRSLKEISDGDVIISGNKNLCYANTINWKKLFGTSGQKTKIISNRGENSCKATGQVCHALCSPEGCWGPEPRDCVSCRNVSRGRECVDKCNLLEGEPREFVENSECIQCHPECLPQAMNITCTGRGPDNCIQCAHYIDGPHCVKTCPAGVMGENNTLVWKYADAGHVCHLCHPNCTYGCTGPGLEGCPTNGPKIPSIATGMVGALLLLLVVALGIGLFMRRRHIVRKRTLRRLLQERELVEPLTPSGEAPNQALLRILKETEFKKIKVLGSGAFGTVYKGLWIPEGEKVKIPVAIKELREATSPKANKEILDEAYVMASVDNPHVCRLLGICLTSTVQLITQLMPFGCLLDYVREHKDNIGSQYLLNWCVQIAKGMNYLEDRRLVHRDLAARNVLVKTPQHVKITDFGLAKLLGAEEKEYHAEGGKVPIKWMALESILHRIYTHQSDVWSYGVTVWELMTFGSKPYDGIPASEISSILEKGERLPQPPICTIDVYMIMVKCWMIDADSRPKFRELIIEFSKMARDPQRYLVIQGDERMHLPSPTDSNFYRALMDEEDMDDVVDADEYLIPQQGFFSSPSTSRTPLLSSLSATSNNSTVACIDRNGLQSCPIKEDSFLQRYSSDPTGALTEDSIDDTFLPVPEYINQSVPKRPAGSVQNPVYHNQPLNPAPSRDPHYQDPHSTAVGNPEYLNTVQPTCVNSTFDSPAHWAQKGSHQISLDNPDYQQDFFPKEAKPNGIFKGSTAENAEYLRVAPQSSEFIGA

| SMILES | IC50 (EGFR tyrosine kinase) [nM] | IC50 [1] [nM] | IC50 [2] [nM] | IC50 (Her-2 enzyme) [nM] | IC50 [3] [nM] | IC50 [5] [nM] | IC50 [4] [nM] | Inhibition rate (%) d22 ([6]; 5 mg/kg, qd) | RTV d22 ([6]; 5 mg/kg, qd) | T/C (%) d22 ([6]; 5 mg/kg, qd) [%] | Inhibition rate (%) d22 ([6]; 20 mg/kg (middle dosage), qod) | RTV d22 ([6]; 20 mg/kg, qod) | T/C (%) d22 ([6]; 20 mg/kg, qod) [%] | Inhibition rate (%) d22 ([6]; 80 mg/kg (high dosage), qod) | RTV d22 ([6]; 80 mg/kg, qod) | T/C (%) d22 ([6]; 80 mg/kg, qod) [%] | Inhibition rate (%) d22 ([6]; 5 mg/kg (low dosage), qod) | RTV d22 ([6]; 5 mg/kg, qod) | T/C (%) d22 ([6]; 5 mg/kg, qod) [%] |
| --- | --- | --- | --- | --- | --- | --- | --- | --- | --- | --- | --- | --- | --- | --- | --- | --- | --- | --- | --- |
| COCCCOc1cc2ncnc(Nc3ccc(F)c(Cl)c3)c2cc1NC(=O)/C=C/CN(C)C [Embodiment 1, (E)-N-(4-(3-chloro-4-fluorophenylamino)-7-(3-methoxypropoxy)quinazolin-6-yl)-4-(dimethylamino)but-2-enamide] | 0.765 | – | – | 39.3 | 6080 | 0.293 | – | – | – | – | – | – | – | – | – | – | – | – | – |
| CCOCCOc1cc2ncnc(Nc3ccc(OCc4ccccn4)c(Cl)c3)c2cc1NC(=O)/C=C/CN(C)C [Embodiment 12, (E)-N-(4-(3-chloro-4-(pyridin-2-ylmethoxy)phenylamino)-7-(2-ethoxyethoxy)quinazolin-6-yl)-4-(dimethylamino)but-2-enamide] | 10.2 | – | – | 53.9 | – | – | – | 66.1** % | 2.47 ± 0.68 | 33.21 | 78.7** % | 1.59 ± 0.33 | 21.41 | 90.5*** % | 0.70 ± 0.09 | 9.34 | – | – | – |
| CCOCCOc1cc2ncnc(Nc3ccc(F)c(Cl)c3)c2cc1NC(=O)/C=C/CN(C)C [Embodiment 4, (E)-N-(4-(3-chloro-4-fluorophenylamino)-7-(2-ethoxyethoxy)quinazolin-6-yl)-4-(dimethylamino)but-2-enamide] | 0.699 | 0.62 | 1.53 | 42.1 | 7520 | 0.312 | – | – | – | – | 82.0** % | 1.39 ± 0.40 | 18.71 | 95.1*** % | 0.43 ± 0.05 | 5.75 | 73.2** % | 2.00 ± 0.29 | 26.91 |

The remaining compounds from weak to strong by IC50 (Her-2 enzyme), led by results:

| IC50 (EGFR tyrosine kinase) [nM] | IC50 [1] [nM] | IC50 [2] [nM] | IC50 (Her-2 enzyme) [nM] | IC50 [3] [nM] | IC50 [5] [nM] | SMILES | IC50 [4] [nM] | Inhibition rate (%) d22 ([6]; 5 mg/kg, qd) | RTV d22 ([6]; 5 mg/kg, qd) | T/C (%) d22 ([6]; 5 mg/kg, qd) [%] | Inhibition rate (%) d22 ([6]; 20 mg/kg (middle dosage), qod) | RTV d22 ([6]; 20 mg/kg, qod) | T/C (%) d22 ([6]; 20 mg/kg, qod) [%] | Inhibition rate (%) d22 ([6]; 80 mg/kg (high dosage), qod) | RTV d22 ([6]; 80 mg/kg, qod) | T/C (%) d22 ([6]; 80 mg/kg, qod) [%] | Inhibition rate (%) d22 ([6]; 5 mg/kg (low dosage), qod) | RTV d22 ([6]; 5 mg/kg, qod) | T/C (%) d22 ([6]; 5 mg/kg, qod) [%] |
| --- | --- | --- | --- | --- | --- | --- | --- | --- | --- | --- | --- | --- | --- | --- | --- | --- | --- | --- | --- |
| – | – | 16.7 | 482 | 1960 | – | COC[C@H](C)Oc1cc2ncnc(Nc3ccc(F)c(Cl)c3)c2cc1NC(=O)/C=C/CN(C)C [Embodiment 3, (S,E)-N-(4-(3-chloro-4-fluorophenylamino)-7-(2-methoxy-1-methylethoxy)quinazolin-6-yl)-4-(dimethylamino)but-2-enamide] | 66.5 | – | – | – | – | – | – | – | – | – | – | – | – |
| 2.85 | – | 8.15 | 132 | 3140 | 0.555 | CCCOCCOc1cc2ncnc(Nc3ccc(F)c(Cl)c3)c2cc1NC(=O)/C=C/CN(C)C [Embodiment 5, (E)-N-(4-(3-chloro-4-fluorophenylamino)-7-(2-propoxyethoxy)quinazolin-6-yl)-4-(dimethylamino)but-2-enamide] | – | – | – | – | – | – | – | – | – | – | – | – | – |
| 1.54 | – | 5.87 | 83.8 | 1840 | 0.55 | CC(C)OCCOc1cc2ncnc(Nc3ccc(F)c(Cl)c3)c2cc1NC(=O)/C=C/CN(C)C [Embodiment 6, (E)-N-(4-(3-chloro-4-fluorophenylamino)-7-(2-isopropoxyethoxy)quinazolin-6-yl)-4-(dimethylamino)but-2-enamide] | – | – | – | – | – | – | – | – | – | – | – | – | – |
| 0.771 | 1.43 | 6.01 | 3.63 | 1440 | 0.587 | C#Cc1cccc(Nc2ncnc3cc(OCCOCC)c(NC(=O)/C=C/CN(C)C)cc23)c1 [Embodiment 10, (E)-N-(7-(2-ethoxyethoxy)-4-(3-ethynylphenylamino)quinazolin-6-yl)-4-(dimethylamino)but-2-enamide] | 45.5 | – | – | – | – | – | – | – | – | – | – | – | – |
